Patent US20250108051A1, “THERAPEUTIC AGENT FOR CANCER” (TOHOKU UNIVERSITY, priority 2022, published 2025)

Tests used:
RKO cells = assay: Screening of SCADS Inhibitor Kit with dabrafenib + trametinib, cell viability by MTT assay; assay type: cell-based
Protocol: As the SCADS Inhibitor Kit, one provided by the Molecular Profiling Committee of the Grants-in-Aid for Scientific Research “Advanced Animal Model Support (AdAMS)” in the innovation field of the Ministry of Education, Culture, Sports, Science and Technology was used.
The RKO cells were seeded on a 96-well plate with the number of cells of 2.7×10^3 cells/well, and 24 hours later, SCADS Inhibitor Kit 4 ver 2.3 was administered at 500 nM. Two plates treated in the same manner were prepared, and 50 nM of the BRAF inhibitor Dabrafenib and 5 nM of the MEK inhibitor Trametinib were administered to one of the plates. After incubation at 37° C. for 72 hours after the drug administration, cell viability was measured by an MTT assay (described below). The cell viability was evaluated for RKO cells administered with only DMSO.
The MTT (Thiazolyl blue tetrazolium bromide) assay was performed as follows.
RKO cells were seeded on a 96-well plate with the number of cells of 1.5×10^3 cells/well, CO115 cells were seeded on a 96-well plate with the number of cells of 2.5×10^3 cells/well, and HT29 cells and WiDR cells were respectively seeded on 96-well plates with the number of cells of 6×10^3 cells/well. After incubation for about 24 hours until the cell density reached 40% to 60%, the drug was administered. […]
The synergistic effect was evaluated using Combination Index. […]

[1] = test system: RKO (BRAF V600E-mutated colorectal cancer cell line); assay: MTT assay, encorafenib + binimetinib with retinoid; assay type: cell-based; conditions: ATRA 0, 1.0 or 10 μM; encorafenib and binimetinib 0 to 10 μM
Protocol: RKO cells were seeded on a 96-well plate with the number of cells of 1.5×10^3 cells/well, CO115 cells were seeded on a 96-well plate with the number of cells of 2.5×10^3 cells/well, and HT29 cells and WiDR cells were respectively seeded on 96-well plates with the number of cells of 6×10^3 cells/well. After incubation for about 24 hours until the cell density reached 40% to 60%, the drug was administered. After incubation at 37° C. for 72 hours, the MTT assay was performed using Cell Counting Kit-8 (Dojindo Laboratories, Kumamoto, Japan). To each well was added 10 μl of Cell Counting Kit-8 solution, the plates were placed in a culture vessel at 5% CO2 and 37° C. for 120 minutes to perform a color reaction, and then the absorbance at 450 nm was measured and evaluated with a microplate reader SpectraMax M2e (Molecular Devices, Sunnyvale, CA, USA). Cells administered with 0.1% DMSO were used as a control. The above was performed three or more times as independent experiments.
In various kinds of colorectal cancer cell lines, the inhibition effect of a BRAF inhibitor (encorafenib) and an MEK inhibitor (binimetinib) for the viability of cells and the enhancement by ATRA were examined. […] The horizontal axis indicates component concentrations of encorafenib and binimetinib in a range of 0 μM to 10 μM, and the vertical axis indicates the cell viability when 0 μM, 1.0 μM, or 10 μM (each bar graph) of ATRA was administered. As shown in the drawing, encorafenib and binimetinib were used in an equal molar concentration.
(§1) As the compounds for acting and on a retinoid receptor, retinol, tamibarotene, bexarotene among the retinoids were used. As the cell lines, the above-described cell lines including RKO, HT29, and CO115 were used. As the BRAF inhibitor and the MEK inhibitor to be used in combination, a component (EB) obtained by mixing encorafenib and binimetinib in equal amounts was used as in Test Example 2.
as §1, with “acting” for “acting and”, “tamibarotene, and” for “tamibarotene,”, “colorectal cancer” for “above-described”, “HT29, CO115, WiDR, COLO205,” for “HT29,”, “LIM2405 described above” for “CO115”

[2] = test system: 8505C (BRAF V600E-mutated thyroid cancer cell line); assay: MTT assay, encorafenib + binimetinib with ATRA; assay type: cell-based; conditions: ATRA 0, 1.0 or 10 μM; encorafenib and binimetinib 0 to 10 μM
HT29 cell line = assay: Subcutaneous transplanted tumor mouse model (Test Example 13); assay type: in vivo
Protocol: The in vivo antitumor effect and toxicity generated by combined use of a compound acting on a retinoid receptor, a BRAF inhibitor, an MEK inhibitor, and an anti-EGFR antibody, or a BRAF inhibitor and an anti-EGFR antibody were evaluated by a mouse model subcutaneous transplanted with a HT29 cell line.
Female nude mice (BALB/c-nu) were purchased from The Jackson Laboratory Japan, and raised in a specific pathogen-free environment. The cultured HT29 cell line was collected with trypsin, and a culture medium and a Corning Matrigel basement membrane matrix (Corning) were mixed at a volume ratio of 1:1 so as to reach 1×10^7 cells/mL, followed by suspension. Into a left abdominal region of each mouse was subcutaneously implanted 0.1 mL of cell suspension. When tumor volumes reached 150 mm^3 to 200 mm^3, mice were randomly divided into a vehicle group, a TRE single group, an ENC+CET group, a three-drug combination (TRE+ENC+CET) group including TRE and ENC+CET, an ENC+BIN+CET group, or a four-drug combination (TRE+ENC+BIN+CET) group including TRE and ENC+BIN+CET. TRE, ENC, and BIN were dissolved in Corn oil (FUJIFILM Wako Pure Chemical Industries, Ltd.), and further subjected to ultrasonic treatment using Bioruptor UCW-310 (Sonicbio. Co. Ltd.) to prepare a drug solution. ENC, BIN, and TRE were orally administrated by force once a day for 28 days at doses of 5 mg/kg, 1.75 mg/kg, and 10 mg/kg, respectively. […] The tumor size and the body weight were measured every three days from the start of the therapy. […]
Subsequently, in order to evaluate the influence of the combined use of TRE and ENC+BIN+CET or ENC+CET on in vivo tumor proliferation, a Ki-67 labeling index was calculated using a resected tumor at the end of the therapy.
Specifically, tumors were extracted from 4 to 6 mice randomly selected from each therapy group. […] Five fields of view for a central part of the tumor without tumor necrosis were selected, and 500 or more cells in total were counted in each group. The Ki-67 labeling index was calculated as the number of Ki-67 positive cells/the total number of cells.

Structure (SMILES): CC1=C(/C=C/C(C)=C/C=C/C(C)=C/C(=O)O)C(C)(C)CCC1 [ATRA, all-trans retinoic acid]
- proliferation inhibition (RKO cells; ATRA alone): less than 20%
- viability at 0.5 µM (RKO cells; Homo sapiens, RKO, 72 hours, kit compound (ATRA) 0.5 μM, DAB 50 nM, TRA 5 nM, relative to DMSO): 101%
- cell viability with encorafenib and binimetinib as a function of ATRA concentration [1]: the higher the concentration of ATRA is, the lower the cell viability is
- cell viability with encorafenib and binimetinib as a function of ATRA concentration [2]: the higher the concentration of ATRA is, the lower the cell viability is
- mouse body weights depending on the presence or absence of TRE (HT29 cell line; 28 days after the therapy): no significant difference
- tumor volume (HT29 cell line; 28 days from the start of the therapy, ENC 5 mg/kg, BIN 1.75 mg/kg, TRE 10 mg/kg oral once a day, CET 20 mg/kg i.p. twice a week): 1156 mm^3
- Ki-67 labeling index (HT29 cell line; resected tumor at the end of the therapy, TRE vs vehicle, combinations vs same group without TRE): No significant difference
